Measurements from patent publication US12427144B2, “Compounds and methods for the targeted degradation of androgen receptor” (Arvinas Operations, Inc., priority 2019, dated 2025).

The compounds below were run against T1, androgen receptor (Homo sapiens, UniProt P10275) (assay: AR ELISA assay (PathScan AR Sandwich ELISA), VCaP cells). Conditions: drug treatment 5 hours.
T1 construct: endogenous in cells; host or cells: VCaP
T1 sequence (P10275 1-920): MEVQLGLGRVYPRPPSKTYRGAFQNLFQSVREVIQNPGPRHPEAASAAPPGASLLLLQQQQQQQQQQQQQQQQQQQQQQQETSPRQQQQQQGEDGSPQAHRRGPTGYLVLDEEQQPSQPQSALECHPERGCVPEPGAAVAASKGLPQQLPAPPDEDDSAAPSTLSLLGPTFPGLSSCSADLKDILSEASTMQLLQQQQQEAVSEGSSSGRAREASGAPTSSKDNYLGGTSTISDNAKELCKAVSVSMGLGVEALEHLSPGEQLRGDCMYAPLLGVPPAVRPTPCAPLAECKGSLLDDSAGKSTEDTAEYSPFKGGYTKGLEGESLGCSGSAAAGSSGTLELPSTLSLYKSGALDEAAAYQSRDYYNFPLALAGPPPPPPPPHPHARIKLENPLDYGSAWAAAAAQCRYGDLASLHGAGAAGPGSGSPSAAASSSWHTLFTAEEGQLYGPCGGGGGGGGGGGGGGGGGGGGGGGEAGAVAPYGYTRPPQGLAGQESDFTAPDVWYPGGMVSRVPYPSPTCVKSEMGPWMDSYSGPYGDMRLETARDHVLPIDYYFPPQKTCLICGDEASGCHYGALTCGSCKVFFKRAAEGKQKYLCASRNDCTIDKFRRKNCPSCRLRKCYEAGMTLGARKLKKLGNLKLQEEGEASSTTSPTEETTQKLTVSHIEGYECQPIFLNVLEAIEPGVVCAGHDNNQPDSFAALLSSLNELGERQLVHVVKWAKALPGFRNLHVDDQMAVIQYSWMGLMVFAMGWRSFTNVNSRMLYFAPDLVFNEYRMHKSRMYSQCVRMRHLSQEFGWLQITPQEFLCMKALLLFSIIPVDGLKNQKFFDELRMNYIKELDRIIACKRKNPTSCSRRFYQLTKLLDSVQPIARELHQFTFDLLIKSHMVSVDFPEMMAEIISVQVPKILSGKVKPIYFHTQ
Assay type: cell-based
Method: Compounds were evaluated in this assay in LNCaP and/or VCaP cells utilizing similar protocols. The protocols used with VCaP cells are described below. The androgen receptor ELISA assay was performed using PathScan AR Sandwich ELISA (Cell Signaling Catalog #12850) according to the following assay steps:
VCaP cells were seeded at 40,000 cells/well at a volume of 100 μL/well in VCaP assay medium [Phenol red free RPMI (Gibco Cat #11835-030); 5% Charcoal Stripped (Dextran treated) FBS (Omega Scientific, Cat #FB-04); 1% penstrep (Life Technologies, Gibco Cat #: 10378-016)] in Corning 3904 plates. The cells were incubated for a minimum of 3 days. Cells were dosed with PROTACs diluted in 0.01% DMSO and the drug treatment was allowed for 5 hours.
AR ELISA (Cell Signaling) was performed as follows. 1× Cell Signaling Cell lysis buffer was made (Catalogue #9803; comes with the kit). Media from the treated wells is aspirated, and 100 μL 1× cell lysis buffer/well is added. The cells were placed on a shaker for 10 minutes at 4° C. Twenty microliters of lysate was transferred to 100 μl of Diluent in ELISA plate (0.15 μg/ml-[…]). The lysate-diluent mixture was shaken for 30 minutes at 37° C. Allow mouse AR antibody, anti-mouse antibody, TMB, and STOP solution to come to room temperature. The 1×ELISA buffer included in kit was made and loaded in the reservoir. Media from the plates was discarded, the ELISA plate tapped hard on paper towel, and washed 4×200 μl ELISA wash buffer using a plate washer.
One-hundred (100) […] of mouse AR detection Ab was added; the plates were covered and shaken at 37° C. for 1 hour; media was discarded from the plates, the plates were tapped on a paper towel, washed 4× with 200 μL ELISA wash buffer with a plate washer.
One-hundred (100) […] of anti-mouse—HRP conjugated Ab (comes with the kit) was added; the plates were covered and shaken at 37° C. for 30 minutes; the TMB reagent was allowed to come to room temperature; the media was discard from the plate, the plates were tapped on paper towel, washed 4× with 200 μL of ELISA wash buffer; the plates were tapped the plates on paper towel. One-hundred (100) L of TMB was added and the plates shaken for 2 minutes—while watching for color development. One-hundred (100) L Stop solution was added when light blue color developed. Plates were shaken and read at 450 nm.
Progression of prostate cancer in patients treated with anti-androgen therapy usually involves one of several mechanisms of enhanced Androgen Receptor (AR) signaling, including increased intratumoral androgen synthesis, increased AR expression and AR mutations. PROTACs (PROteolysis TArgeting Chimera), which use bi-functional molecules that simultaneously bind a target of choice and an E3 ligase, cause ubiquitination via induced proximity and degradation of the targeted, pathological protein. As opposed to traditional target inhibition, which is a competitive process, degradation is a progressive process. As such, it is less susceptible to increases in endogenous ligand, target expression, or mutations in the target. Thus, this technology appears to be ideal for addressing the mechanisms of AR resistance in patients with prostate cancer. Data was analyzed and plotted using GraphPad Prism software.

Row | SMILES | DC50 [nM] | Dmax [%]
1 | Cc1cc(O[C@H]2C(C)(C)[C@H](NC(=O)c3ccc(N4CCC(CN5CCN(c6ccc(C(=O)NC7CCC(=O)NC7=O)cc6)CC5)CC4)nn3)C2(C)C)cc(C)c1C#N (stereo partly drawn) [Compound 2, N-((1R,3R)-3-(4-cyano-3,5-dimethylphenoxy)-2,2,4,4-tetramethylcyclobutyl)-6-(4-((4-(4-((2,6-dioxopiperidin-3-yl)carbamoyl)phenyl)piperazin-1-yl)methyl)piperidin-1-yl)pyridazine-3-carboxamide] | < 1 | ≥ 70
2 | Cc1cc(O[C@H]2C(C)(C)[C@H](NC(=O)c3ccc(N4CCC(CN5CCN(c6ccc(F)c(C(=O)NC7CCC(=O)NC7=O)c6)CC5)CC4)cc3)C2(C)C)cc(C)c1C#N (stereo partly drawn) [Compound 6, 5-(4-((1-(4-(((1R,3R)-3-(4-cyano-3,5-dimethylphenoxy)-2,2,4,4-tetramethylcyclobutyl)carbamoyl)phenyl)piperidin-4-yl)methyl)piperazin-1-yl)-N-(2,6-dioxopiperidin-3-yl)-2-fluorobenzamide] | < 1 | 50 to 70
3 | CC1(C)[C@H](NC(=O)c2ccc(N3CCC(CN4CCN(c5cccc(C(=O)NC6CCC(=O)NC6=O)c5)CC4)CC3)cc2)C(C)(C)[C@H]1Oc1ccc(C#N)c(Cl)c1 (stereo partly drawn) [Compound 4, 3-(4-((1-(4-(((1R,3R)-3-(3-chloro-4-cyanophenoxy)-2,2,4,4-tetramethylcyclobutyl)carbamoyl)phenyl)piperidin-4-yl)methyl)piperazin-1-yl)-N-(2,6-dioxopiperidin-3-yl)benzamide] | < 1 | < 50
4 | CC1(C)[C@H](NC(=O)c2ccc(N3CCC(CN4CCN(c5ccc(F)c(C(=O)NC6CCC(=O)NC6=O)c5)CC4)CC3)cc2)C(C)(C)[C@H]1Oc1ccc(C#N)c(Cl)c1 (stereo partly drawn) [Compound 8, 5-(4-((1-(4-(((1R,3R)-3-(3-chloro-4-cyanophenoxy)-2,2,4,4-tetramethylcyclobutyl)carbamoyl)phenyl)piperidin-4-yl)methyl)piperazin-1-yl)-N-(2,6-dioxopiperidin-3-yl)-2-fluorobenzamide] | < 1 | < 50
5 | CC1(C)[C@H](NC(=O)c2ccc(N3CCC(CN4CCN(c5ccc(C(=O)NC6CCC(=O)NC6=O)cc5)CC4)CC3)cc2)C(C)(C)[C@H]1Oc1ccc(C#N)c(Cl)c1 (stereo partly drawn) [Compound 7, N-((1R,3R)-3-(3-chloro-4-cyanophenoxy)-2,2,4,4-tetramethylcyclobutyl)-4-(4-((4-(4-((2,6-dioxopiperidin-3-yl)carbamoyl)phenyl)piperazin-1-yl)methyl)piperidin-1-yl)benzamide] | < 1 | ≥ 70
6 | Cc1cc(O[C@H]2C(C)(C)[C@H](NC(=O)c3ccc(N4CCC(CN5CCN(c6cncc(C(=O)NC7CCC(=O)NC7=O)c6)CC5)CC4)cc3)C2(C)C)cc(C)c1C#N (stereo partly drawn) [Compound 5, N-(2,6-dioxopiperidin-3-yl)-5-(4-[[1-(4-[[(1r,3r)-3-(4-cyano-3,5-dimethylphenoxy)-2,2,4,4-tetramethylcyclobutyl]carbamoyl]phenyl)piperidin-4-yl]methyl]piperazin-1-yl)pyridine-3-carboxamide] | < 1 | < 50
7 | CC(C)N(CC1CCN(c2cnc(C(=O)N[C@H]3C(C)(C)[C@H](Oc4ccc(C#N)c(Cl)c4)C3(C)C)cn2)CC1)[C@H]1C[C@H](Oc2cccc(C(=O)NC3CCC(=O)NC3=O)c2)C1 (stereo partly drawn) [Compound 9, N-((1R,3R)-3-(3-chloro-4-cyanophenoxy)-2,2,4,4-tetramethylcyclobutyl)-5-(4-((((1R,3R)-3-(3-((2,6-dioxopiperidin-3-yl)carbamoyl)phenoxy)cyclobutyl)(isopropyl)amino)methyl)piperidin-1-yl)pyrazine-2-carboxamide] | ≥ 100 | < 50

Other lines, results leading:

Row | DC50 [nM] | Dmax [%] | SMILES
8 | 1 to 10 | < 50 | CC(C)N(CC1CCN(c2cnc(C(=O)N[C@H]3C(C)(C)[C@H](Oc4ccc(C#N)c(Cl)c4)C3(C)C)cn2)CC1)[C@H]1C[C@H](Oc2ccc(C(=O)NC3CCC(=O)NC3=O)cc2)C1 (stereo partly drawn) [Compound 16, N-((1R,3R)-3-(3-chloro-4-cyanophenoxy)-2,2,4,4-tetramethylcyclobutyl)-5-(4-((((1R,3R)-3-(4-((2,6-dioxopiperidin-3-yl)carbamoyl)phenoxy)cyclobutyl)(isopropyl)amino)methyl)piperidin-1-yl)pyrazine-2-carboxamide]
9 | 1 to 10 | 50 to 70 | Cc1cc(O[C@H]2C(C)(C)[C@H](NC(=O)c3cnc(N4CCC(CN(C(C)C)[C@H]5C[C@H](Oc6ccc(C(=O)NC7CCC(=O)NC7=O)cc6)C5)CC4)cn3)C2(C)C)cc(C)c1C#N (stereo partly drawn) [Compound 13, N-((1R,3R)-3-(4-cyano-3,5-dimethylphenoxy)-2,2,4,4-tetramethylcyclobutyl)-5-(4-((((1R,3R)-3-(4-((2,6-dioxopiperidin-3-yl)carbamoyl)phenoxy)cyclobutyl)(isopropyl)amino)methyl)piperidin-1-yl)pyrazine-2-carboxamide]
10 | < 1 | 50 to 70 | Cc1cc(O[C@H]2C(C)(C)[C@H](NC(=O)c3ccc(N4CCC(CN5CCN(c6ccnc(C(=O)NC7CCC(=O)NC7=O)c6)CC5)CC4)cc3)C2(C)C)cc(C)c1C#N (stereo partly drawn) [Compound 10, 4-(4-((1-(4-(((1R,3R)-3-(4-cyano-3,5-dimethylphenoxy)-2,2,4,4-tetramethylcyclobutyl)carbamoyl)phenyl)piperidin-4-yl)methyl)piperazin-1-yl)-N-(2,6-dioxopiperidin-3-yl)picolinamide]
11 | < 1 | ≥ 70 | Cc1cc(O[C@H]2C(C)(C)[C@H](NC(=O)c3cnc(N4CCC(CN(C(C)C)[C@H]5C[C@H](Oc6ccc(C(=O)NC7CCC(=O)NC7=O)cc6)C5)CC4)nc3)C2(C)C)cc(C)c1C#N (stereo partly drawn) [Compound 12, N-((1R,3R)-3-(4-cyano-3,5-dimethylphenoxy)-2,2,4,4-tetramethylcyclobutyl)-2-(4-((((1R,3R)-3-(4-((2,6-dioxopiperidin-3-yl)carbamoyl)phenoxy)cyclobutyl)(isopropyl)amino)methyl)piperidin-1-yl)pyrimidine-5-carboxamide]
12 | < 1 | 50 to 70 | Cc1cc(O[C@H]2C(C)(C)[C@H](NC(=O)c3cnc(N4CCC(CN(C(C)C)[C@H]5C[C@H](Oc6cccc(C(=O)NC7CCC(=O)NC7=O)c6)C5)CC4)nc3)C2(C)C)cc(C)c1C#N (stereo partly drawn) [Compound 11, N-((1R,3R)-3-(4-cyano-3,5-dimethylphenoxy)-2,2,4,4-tetramethylcyclobutyl)-2-(4-((((1R,3R)-3-(3-((2,6-dioxopiperidin-3-yl)carbamoyl)phenoxy)cyclobutyl)(isopropyl)amino)methyl)piperidin-1-yl)pyrimidine-5-carboxamide]
